# Patent US9469643B2, “Polymorphic forms of (S)-2-(1-(9H-purin-6-ylamino)propyl)-5-fluoro-3-phenylquinazolin-4(3H)-one” (GILEAD CALISTOGA LLC, priority 2012, dated 2016)
# Like-named read-outs stand apart in the source and are kept apart here.
# What was measured:
# Format in all cases: physicochemical
# [1] = Conversion of ball milled Form I into Form II in acetone slurry (XRPD); settings: 10 g ball milled at 30 Hz for 10 minutes, stirred in 300 mL acetone at 28° C.
# Method: Form I was prepared as described in Example 1. Form I solids were ball milled in batches for 10 minutes at 30 Hz. Samples were analyzed by XRPD. Table 1 below summarizes the amount of polymorphic Form II observed from conversion of polymorphic Form I. Additionally, 10 g of Form I was ball milled at 30 Hz for 10 minutes and stirred in 300 mL of acetone at 28° C.
# [2] = Hydrate screen in IPA/water system: solubility of slurried Form I; settings: isopropyl alcohol/water mixture, organic solvent or mixture, thermodynamic from solid; for solubility: read-out: 15-16 Day Solubility
# Method: (§1) About 50 mg of Form I of (S)-2-(1-(9H-purin-6-ylamino)propyl)-5-fluoro-3-phenylquinazolin-4(3H)-one was slurried in either (A) a 1-mL mixture of a isopropyl alcohol (IPA) and water, or (B) a 1-mL mixture of ethanol and water, for several days at room temperature. As used herein, water activity (aw) in liquid phase corresponds to relative humidity in the atmosphere. For example, 0.5 aw is equivalent to 50% relative humidity.
# [3] = Compression of Form I in hydraulic tablet press, XRPD
# Method: Form I of (S)-2-(1-(9H-purin-6-ylamino)propyl)-5-fluoro-3-phenylquinazolin-4(3H)-one was subjected to high pressure in a hydraulic tablet press (ENERPAC Model P142 hydraulic press; #9166 0.275 inch punch) as shown in Table 3 below. The relaxation time is the time between compressions. A sample of the compressed solids was analyzed by XRPD and DSC. FIGS. 2A and 2B depict the XRPD and DSC patterns of polymorphic Form II.
# [4] = Hydrate screen in IPA/water system: solid form by XRPD
# Method: XRPD patterns were collected using a PANalytical X'Pert MPD Pro Powder X-Ray Diffractometer configured with reflectance stage with spinning, data acquisition range: 2-40 degrees 2θ, Copper (Cu) anode; Kα1/Kα2 radiation; tube current 40 mA; tube tension 45 kV; automatic divergence and anti-scatter slits. Samples were prepared for analysis by distributing solid material as a thin layer on a silicon holder. Each holder was mounted on a reflectance/transmittance stage and rotated during data acquisition.
# as §1
# [5] = Hydrate screen in ethanol/water system: solid form
# Method: as §1
# Form VII of (S)-2-(1-(9H-purin-6-ylamino)propyl)-5-fluoro-3-phenylquinazolin-4(3H)-one was a mixed water/ethanol solvate.
# [6] = Dry and wet grinding experiments: conversion of Form I into Form II in slurry
# Method: Form I of (S)-2-(1-(9H-purin-6-ylamino)propyl)-5-fluoro-3-phenylquinazolin-4(3H)-one was pre-processed using various grinding methods before forming a slurry in either acetone or THF and stirring at either room temperature, 22° C. or 30° C. As used in this Example, “enriched” describes a sample that contains substantially more Form II than Form I.
# [7] = Form I suspensions in acetone at different temperatures: form conversion; settings: magnetic stirring
# Method: Form I of (S)-2-(1-(9H-purin-6-ylamino)propyl)-5-fluoro-3-phenylquinazolin-4(3H)-one was suspended in acetone at a concentration of 50 mg/mL, and stirred magnetically over a period of 5-6 days. Four experiments at different temperature were conducted.
# Table 4 summarizes the reaction conditions and the amount of polymorphic forms observed for each of the four experiments. As used in this Example, “Enriched II” described a sample that contains substantially more Form II than Form I.
# [8] = Effect of temperature on form conversion of solids (DSC, heating, XRPD)
# Method: DSC indicated close melting points for each polymorph and a solid-solid transition in Form II at about 115° C. to produce Form I. To confirm this finding, […] of Form I of (S)-2-(1-(9H-purin-6-ylamino)propyl)-5-fluoro-3-phenylquinazolin-4(3H)-one was heated at 50° C., 60° C., 70° C., 80° C., 90° C., 100° C., 110° C. and 120° C. jacket temperature using Destiny for 22 hours.
# [9] = IPA/water aw 0.2, room temperature, solid by XRPD Form I & II
# [10] = IPA/water aw 0.3, room temperature, solid by XRPD Form I & II
# [11] = IPA/water aw 0.4, room temperature, solid by XRPD Form I & II
# [12] = IPA/water aw 0.5, room temperature, solid by XRPD Form I & II
# [13] = IPA/water aw 0.6, room temperature, solid by XRPD Form I & II
# [14] = Form I slurried in IPA/water aw 0.2, room temperature
# [15] = Form I slurried in IPA/water aw 0.3, room temperature
# [16] = Form I slurried in IPA/water aw 0.4, room temperature
# [17] = Form I slurried in IPA/water aw 0.5, room temperature
# [18] = Form I slurried in IPA/water aw 0.6, room temperature
# [19] = Form I slurried in IPA/water aw 0.7, room temperature
# [20] = Form I slurried in IPA/water aw 0.8, room temperature
# [21] = Form I slurried in IPA/water aw 0.9, room temperature
smiles,measurement,setting,value
"CC[C@H](Nc1ncnc2[nH]cnc12)c1nc2cccc(F)c2c(=O)n1-c1ccccc1 [Form I, (S)-2-(1-(9H-purin-6-ylamino)propyl)-5-fluoro-3-phenylquinazolin-4(3H)-one]",conversion of Form I into Form II,[1]; after 18 hours,about 50%
same,conversion of Form I into Form II,[1]; after 40 hours,about 90%
same,solubility at 48 h,[2]; [9],24 mg/mL
same,solubility,[2]; [9],20 mg/mL
same,solubility at 48 h,[2]; [10],19 mg/mL
same,solubility,[2]; [10],19 mg/mL
same,solubility at 48 h,[2]; [11],18 mg/mL
same,solubility,[2]; [11],20 mg/mL
same,solubility at 48 h,[2]; [12],23 mg/mL
same,solubility,[2]; [12],20 mg/mL
same,solubility at 48 h,[2]; [13],23 mg/mL
same,solubility,[2]; [13],24 mg/mL
same,solubility at 48 h,"[2]; IPA/water aw 0.7, room temperature, solid by XRPD Form III",9.8 mg/mL
same,solubility at 48 h,"[2]; IPA/water aw 0.8, room temperature, solid by XRPD Form III",11 mg/mL
same,XRPD (forms observed),"[3]; 163 mg, 2000 psi, 5 min, relaxation time 72 hours",I & II (~1:1)
same,XRPD (forms observed),"[3]; 164 mg, 3000 psi, 5 min, relaxation time 2 hours",I & II (~1:1)
same,XRPD (forms observed),"[3]; 167 mg, 2000 psi, 10 min, relaxation time 72 hours",I & II (~1:1)
same,XRPD (forms observed),"[3]; 168 mg, 3000 psi, 10 min, relaxation time 2 hours",I & II (~1:1)
same,XRPD (forms observed),"[3]; 171 mg, 3000 psi, 60 min, relaxation time 72 hours",I & II (excess
same,XRPD (forms observed),"[3]; amount NA, atm pressure, no compression",Form I &
same,conversion of Form I to Form II,[3]; compressed at 3000 psi for 60 minutes (FIG. 5C),over 50%
same,XRPD (forms observed),"[3]; ~150 mg, 1000 psi, <0.5 min, relaxation time 24 hours",Form I and II
same,XRPD (forms observed),"[3]; ~150 mg, atm pressure, no compression",Form I and II
same,XRPD (forms observed),"[3]; ~160 mg, 4500 psi, <0.5 min",Form I and II
same,15-16 Day XRPD (solid form),[4]; [14],Form I & II
same,48 Hour XRPD (solid form),[4]; [14],Form I & II
same,15-16 Day XRPD (solid form),[4]; [15],Form I & II
same,48 Hour XRPD (solid form),[4]; [15],Form I & II
same,15-16 Day XRPD (solid form),[4]; [16],Form I & II
same,48 Hour XRPD (solid form),[4]; [16],Form I & II
same,15-16 Day XRPD (solid form),[4]; [17],Form I & II
same,48 Hour XRPD (solid form),[4]; [17],Form I & II
same,15-16 Day XRPD (solid form),[4]; [18],Form I & II
same,48 Hour XRPD (solid form),[4]; [18],Form I & II
same,15-16 Day XRPD (solid form),[4]; [19],Form III
same,48 Hour XRPD (solid form),[4]; [19],Form III
same,15-16 Day XRPD (solid form),[4]; [20],Form III
same,48 Hour XRPD (solid form),[4]; [20],Form III
same,15-16 Day XRPD (solid form),[4]; [21],Form III
same,48 Hour XRPD (solid form),[4]; [21],Form III
same,Form (solid form after slurry),"[5]; Form I slurried in ethanol/water aw 0.9, several days, room temperature",I & VII
same,Form conversion in ethanol/water system,"[5]; water activity 0.5 and 0.6, room temperature (data not shown in Table 6)",no conversion
same,Form conversion in ethanol/water system,"[5]; water activity from 0.2 to 0.4, room temperature (data not shown in Table 6)",slowly converted to Form II
same,Form II content,"[6]; 0.2 g, dry/wet grinding, acetone slurry, r.t., magnetic stirring, after 1 day",Enriched after 1 day
same,Form II content,"[6]; 0.2 g, dry/wet grinding, acetone slurry, r.t., magnetic stirring, after 2 days",Highly enriched after 2 days
same,Form II content,"[6]; 1 g, dry/wet grinding, acetone slurry, r.t., magnetic stirring, after 1 week",Trace amount after 1 week
same,Form II content,"[6]; 1 g, high shear mixer (dry), THF slurry, r.t., magnetic stirring, after 1 day",Trace amount after 1 day
same,Form II content,"[6]; 1 g, high shear mixer (dry), acetone slurry, r.t., magnetic stirring, after 1 day",Trace amount after 1 day
same,Form II content,"[6]; 1 g, jet milled, acetone slurry, 22 ° C., magnetic stirring, after 1 day",Small amount after 1 day
same,Form II content,"[6]; 1 g, jet milled, acetone slurry, 22 ° C., magnetic stirring, after 4 days",Enriched after 4 days
same,Form II content,"[6]; 5 g, high shear wet mill, acetone slurry, 30 ° C., overhead stirring, after 3 days",Undetectable after 3 days
same,Form II content,"[6]; 20 g, dry grinding, acetone slurry, 30 ° C., overhead stirring, after 3 days",Undetectable after 3 days
same,Form observed after suspension in acetone,"[7]; 50 mg/mL, 30 ° C., suspension time 5 days",Enriched II
same,Form observed after suspension in acetone,"[7]; 51 mg/mL, 27 ° C., suspension time 5 days",Enriched II
same,Form observed after suspension in acetone,"[7]; 52 mg/mL, 33 ° C., suspension time 6 days",Form I
same,Form observed after suspension in acetone,"[7]; 52 mg/mL, 37 ° C., suspension time 6 days",Form I
same,temperature at which form conversion of heated solids was observed,"[8]; solids heated at 50-120° C. jacket temperature for 22 hours, XRPD (FIG. 6)",around 90 °C
"CC[C@H](Nc1ncnc2[nH]cnc12)c1nc2cccc(F)c2c(=O)n1-c1ccccc1 [Form II, (S)-2-(1-(9H-purin-6-ylamino)propyl)-5-fluoro-3-phenylquinazolin-4(3H)-one]",solid-solid transition temperature (to produce Form I),[8]; by DSC,about 115 °C
